Assay in all cases: DTP human tumour cell line panel, 48 h
For test [1], the system named is ACHN.
Test [2] concerns BT-549.
For test [3], the system named is CAKI-1.
Test [4] relates to CCRF-CEM.
In test [5] the test system is EKVX.
Test [6] concerns HL-60.
For test [7], the system named is HOP-62.
The test system of test [8] is M14.
Test [9] has as its system MDA-MB-231.
In test [10] the test system is MOLT-4.
The test system of test [11] is NCI-H522.
The test system of test [12] is NCI/ADR-RES.
Test [13] deals with RXF 393.
In test [14] the test system is SF-268.
Test [15] has as its system SF-295.
The subject of test [16] is SF-539.
In test [17] the test system is TK-10.
Test [18] deals with U-251.
For test [19], the system named is UACC-62.
For test [20], the system named is UO-31.

Experimental findings from ChEMBL document CHEMBL1201862, “PubChem BioAssay data set” (2004) are described below.

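Values below derive from 48-hour exposures of cells grown in 96-well plates, with endpoints linearly interpolated between the two concentrations bracketing the appropriate inhibition level. Abbreviation: GI50, concentration required for 50% inhibition of growth.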 Calls of active or inactive are those of the source. Rule as the data show it: active = GI50 up to about 1.1 µM and inactive = higher.

With `O=C(OCC12CC3CC(CC(C3)C1)C2)c1ccc(NCc2cc(O)ccc2O)cc1`, the GI50 in test [1] was 2.01 µM (inactive); in test [2] it was 0.331 µM (active); in test [3], 0.466 µM (active); in [4], 0.0547 µM (active); in test [5] it was 2.7 µM (inactive); in [6] it was 0.145 µM (active). For the same compound, the GI50 in [7] was 4.62 µM (inactive); in [8], 1.96 µM (inactive); in test [9] it was 4.06 µM (inactive); in test [10], 0.115 µM (active); in test [11] it was 0.0662 µM (active); in test [12], 1.47 µM (inactive). The GI50 in test [13] is 1.29 µM (inactive); in test [14], 3.27 µM (inactive); in test [15], 3.76 µM (inactive); in test [16], 0.544 µM (active); in [17], 1.99 µM (inactive); in [18] it was 1.02 µM (active). The GI50 in test [19] is 1.6 µM (inactive); in test [20], 0.671 µM (active).

For `Cc1cccc(C(=O)O)c1CC1NCCC2c3ccccc3NC12` (stereo not given), the GI50 in test [1], in [2], in [3], in test [4], in test [5] and in test [6] was > 100 µM (inactive) in each case. Besides, the GI50 in test [7], in test [8], in test [9], in test [10], in [11] and in test [12] was > 100 µM (inactive) each time. Moreover, the GI50 in [13], in test [14], in [15], in test [16], in test [17] and in test [18] was > 100 µM (inactive) in each case. Further, the GI50 in test [19] and in test [20] was > 100 µM (inactive) throughout.

Consider `COc1cc(C[C@H]2C(=O)OC[C@@H]2Cc2ccc(OC)c(OC)c2)cc(OC)c1`, for which the GI50 in test [1] was 31.2 µM (inactive); in [2], 16.8 µM (inactive); in [3] it was > 100 µM (inactive); in test [4], 25.8 µM (inactive); in test [5], 55.6 µM (inactive); in test [6] it was 37.2 µM (inactive). Besides, the GI50 in test [7] was > 100 µM (inactive); in test [8] it was 93.8 µM (inactive); in test [9], 93.3 µM (inactive); in test [10] it was 27.2 µM (inactive); in [11], 64.3 µM (inactive); in [12], 32.1 µM (inactive). The GI50 in test [13] is > 100 µM (inactive); in [14], > 100 µM (inactive); in test [15] it was 88.1 µM (inactive); in test [16] it was > 100 µM (inactive); in test [17], > 100 µM (inactive); in [18], 70.8 µM (inactive). The values for the GI50 in test [19] and in [20] were 62.8 µM (inactive) and 39.6 µM (inactive), respectively.

As for `O=c1cc(NCc2ccncc2)[nH]c(=O)[nH]1`, the GI50 in [1], in [2], in [3], in [4], in [5] and in [6] was > 100 µM (inactive) each time. Moreover, the GI50 in test [7], in test [8], in test [9], in test [10], in test [11] and in test [12] was > 100 µM (inactive) each time. Besides, the GI50 in [13], in test [14], in test [15], in test [16], in [17] and in test [18] was > 100 µM (inactive) in each case. Moreover, the GI50 in test [19] and in [20] was > 100 µM (inactive) each time.

For the compound `COc1ccc(OC)c(NS(=O)(=O)c2ccc3nc(C)n(NS(=O)(=O)c4cc(OC)ccc4OC)c(=O)c3c2)c1`, the GI50 in [1] is > 100 µM (inactive); in test [2], 70.1 µM (inactive); in [3], > 100 µM (inactive); in test [4], 75.7 µM (inactive); in [5], > 100 µM (inactive); in [6], 26.2 µM (inactive). For the same compound, the GI50 in test [7] was > 100 µM (inactive); in [8], > 100 µM (inactive); in test [9] it was > 100 µM (inactive); in test [10], 15.2 µM (inactive); in [11] it was > 100 µM (inactive); in test [12], > 100 µM (inactive). Moreover, the GI50 in test [13], in test [14], in test [15], in test [16], in test [17] and in test [18] was > 100 µM (inactive) each time. For the same compound, the GI50 in test [19] was > 100 µM (inactive); in test [20], 87.9 µM (inactive).

Turning to `CC(=O)N1C2=CCCC2(C)c2ccccc21` (stereo not given), the GI50 in test [1] is > 100 µM (inactive); in test [2], > 100 µM (inactive); in [3] it was > 100 µM (inactive); in test [4] it was > 100 µM (inactive); in test [5] it was > 100 µM (inactive); in test [6], 23.7 µM (inactive). For the same compound, the GI50 in test [7] is > 100 µM (inactive); in [8] it was > 100 µM (inactive); in test [9], > 100 µM (inactive); in test [10], 62.8 µM (inactive); in [11], 26.8 µM (inactive); in test [12], 57.5 µM (inactive). The GI50 in test [13], in test [14], in [15], in [16], in test [17] and in [18] was > 100 µM (inactive) each time. Also, the GI50 was 80.4 µM (inactive) in test [19] and 57.5 µM (inactive) in test [20].

As to `Cc1n[nH]c(=O)n1/N=C\CC/C=N\n1c(C)n[nH]c1=O`, the GI50 in [1], in test [2], in test [3], in [4], in test [5] and in test [6] was > 100 µM (inactive) throughout. In addition, the GI50 in test [7], in test [8], in [9], in test [10], in [11] and in [12] was > 100 µM (inactive) in each case. The GI50 in [13], in test [14], in [15], in test [16], in test [17] and in [18] was > 100 µM (inactive) in each case. Besides, the GI50 in test [19] and in [20] was > 100 µM (inactive) in each case.

With `CCCN1C(=O)CCC2=C1CCc1c2ccc(Cl)c1Cl`, the GI50 is 24.3 µM (inactive) in test [1]; 64.4 µM (inactive) in test [2]; 31.6 µM (inactive) in test [3]; 39.9 µM (inactive) in test [4]; 0.0305 µM (active) in test [5]; 15.8 µM (inactive) in [6]. The GI50 in test [7] was 38.5 µM (inactive); in test [8], 31.9 µM (inactive); in test [9], 16.8 µM (inactive); in [10] it was 26.2 µM (inactive); in [11], 23.3 µM (inactive); in test [12], 33.8 µM (inactive). Moreover, the GI50 is 17.9 µM (inactive) in [13]; 27 µM (inactive) in [14]; 27 µM (inactive) in [15]; 25.9 µM (inactive) in [16]; 11.9 µM (inactive) in [17]; 22.9 µM (inactive) in test [18]. Moreover, the GI50 was 0.492 µM (active) in test [19] and 53 µM (inactive) in [20].

Consider `COc1nc(N=P(c2ccccc2)(c2ccccc2)c2ccccc2)cc(=O)[nH]1`, for which the GI50 in test [1], in test [2], in test [3], in [4], in [5] and in [6] was > 100 µM (inactive) throughout. For the same compound, the GI50 in test [7], in test [8], in test [9], in test [10], in test [11] and in [12] was > 100 µM (inactive) each time. For the same compound, the GI50 in test [13], in test [14], in [15], in test [16], in [17] and in [18] was > 100 µM (inactive) in each case. In addition, the GI50 in test [19] and in test [20] was > 100 µM (inactive) throughout.

Consider `COc1cc(OC)c(-c2cc(=O)c3c(OC)c(OC)c(OC)c(OC)c3o2)cc1OC`, for which the GI50 was > 100 µM (inactive) in test [1]; > 100 µM (inactive) in test [2]; 36.1 µM (inactive) in test [3]; > 28.4 µM (inactive) in test [4]; > 100 µM (inactive) in [5]; 13.6 µM (inactive) in test [6]. Further, the GI50 is 36.1 µM (inactive) in [7]; > 100 µM (inactive) in [8]; 19.8 µM (inactive) in [9]; 22.2 µM (inactive) in test [10]; 17.7 µM (inactive) in [11]; 21.9 µM (inactive) in [12]. Further, the GI50 in test [13] is 12.7 µM (inactive); in test [14] it was > 100 µM (inactive); in test [15] it was 28.1 µM (inactive); in test [16] it was > 100 µM (inactive); in test [17], 97.5 µM (inactive); in test [18] it was 64 µM (inactive). For the same compound, the GI50 in test [19] is 29.6 µM (inactive); in [20], 20.8 µM (inactive).

Usually GI50 stands for the concentration giving 50% growth inhibition.
